The target in experiment [1] is Alpha-Synuclein Protofibril binding to heparin (HS-GAG) (Homo sapiens, UniProt P37840). Briefly: Inhibition of alpha-synuclein protofibril binding to immobilized heparin-BSA (ELISA). Particulars: read-out: Alpha-Synuclein/Heparin Activity (% inhibition class). Also on record: species or system porcine. As for the experimental part:
(§1) Porcine intestinal mucosa heparin conjugated to Bovine Serum Albumin (Heparin-BSA) was prepared as described (Najjam, S. et al. 1997, Cytokine 12, 1013-1022). Heparin is a sulfated HS-GAG and is commonly used as a HS-GAG in biochemical and binding assays (Lindahl, U. and Kjellen, L. (2013) ibid). Heparin-BSA at 0.01 mg/ml in Phosphate Buffered Saline (PBS; pH 7.4) was added to a 96 well polystyrene ELISA plate (NUNC Cat. No. 449824; 100 μl per well) and incubated Over Night (ON) at 4 degrees Celsius. For negative controls, ELISA plates were coated with BSA instead of Heparin-BSA, using the same procedure. Following the incubation, the plate was washed consecutively, by immersion, with de-ionized water and PBS (pH 7.4). The ELISA plate was then blocked with nonfat milk (2%, 200 μl per well) for 2 hours at Room Temperature (RT) with gentle shaking. Following blocking, the plate was washed with de-ionized water then PBS (pH 7.4). GBAPs were dissolved and diluted in PBS (pH 6.5, supplemented with 0.1% BSA) at desired concentrations, added to the ELISA plates containing immobilized Heparin-BSA (100 μl per well) and incubated for 2 hours at RT with gentle shaking. Following incubation, the plate was washed with de-ionized water and three times with PBS (pH 6.5) plus Tween. Bound GBAP was detected by a monoclonal antibody specific for that GBAP, followed by incubation with secondary antibody conjugated to horseradish peroxidase (HRP). Antibody was diluted in PBS (pH 6.5 supplemented with 1% BSA). Following each incubation with antibody, the plate was washed with de-ionized water and three times with PBS (pH 6.5) wash buffer containing 0.1% Tween. The peroxidase substrate chromogen, TMB (Dako Cat. No. S1599) was added (100 μl per well) to the ELISA plate and incubated at room temperature. After 5 minutes ELISA Stop Solution (hydrochloric acid 1N, sulfuric acid 3N) was added (100 μl per well) to stop the peroxidase catalyzed colorimetric reaction. The Optical Density of the samples was measured at 450 nm using an ELISA plate reader (BioTek Synergy H1). Following color development, the % inhibition compared to control (BSA-coated plates) was determined. IC-50s were calculated using GraphPad Prism software.
The assay was performed as described in Example 43, with the following modifications. Following to coating the plates with Heparin-BSA, plates were washed as described. The compounds were dissolved in DMSO at 10 mM final concentration and further diluted prior to assay. DMSO concentration in the screening well was up to […]. Individual compounds were co-incubated with alpha-synuclein on plates containing immobilized heparin. Alpha-synuclein purchased from rPeptide (Cat. No. S1001) was used to prepare protofibrils as described in Ihse et al., 2017. Alpha-synuclein was dissolved in PBS (pH7.4) to a concentration of 140 μM (˜2 mg/ml), and incubated for 7 days at 37° C. with rotary agitation (400 rpm). Resulting fibrils were sonicated for 10 minutes in ultrasonic water bath, quickly frozen and kept in aliquots at −80 degrees Celsius. Protofibrillar alpha-synuclein diluted in PBS (pH 6.5, supplemented with BSA, 0.1%) was added to the ELISA plate (100 μl per well) and incubated for 2 hours at RT with gentle shaking. Following the incubation, the plate was washed with de-ionized water and three times with PBS (pH 6.5) plus Tween. Bound Alpha-synuclein was detected by Anti-Alpha-synuclein Monoclonal Antibody 211 (Santa Cruz Cat. No. sc-12767), followed by secondary anti-IgG antibody conjugated to HRP (R&D System, Cat. No. HAF007). Following to color development with TMB, as described in Example 43, the Optical Density of the samples was measured at 450 nm using an ELISA plate reader. Following color development, the % inhibition compared to control (no compound, DMSO control) for every compound was determined.
An example of inhibition curve is shown in FIG. 1 for Inhibitor Compounds 22 and 24. […]

In experiment [2] the target is TDP-43 binding to heparin (HS-GAG) (Homo sapiens, UniProt Q13148). Briefly: Inhibition of TDP-43 binding to immobilized heparin-BSA (ELISA). Also on record: species or system porcine. The following applies: for IC50: TDP43/Heparin Activity (IC-50), TDP-43, heparin-BSA; for inhibition at 30 µM: read-out: TDP43/Heparin Activity (% inhibition class). As for the experimental part: as §1
TDP-43 binding to heparin (HS-GAG), sequence (Q13148 whole entry): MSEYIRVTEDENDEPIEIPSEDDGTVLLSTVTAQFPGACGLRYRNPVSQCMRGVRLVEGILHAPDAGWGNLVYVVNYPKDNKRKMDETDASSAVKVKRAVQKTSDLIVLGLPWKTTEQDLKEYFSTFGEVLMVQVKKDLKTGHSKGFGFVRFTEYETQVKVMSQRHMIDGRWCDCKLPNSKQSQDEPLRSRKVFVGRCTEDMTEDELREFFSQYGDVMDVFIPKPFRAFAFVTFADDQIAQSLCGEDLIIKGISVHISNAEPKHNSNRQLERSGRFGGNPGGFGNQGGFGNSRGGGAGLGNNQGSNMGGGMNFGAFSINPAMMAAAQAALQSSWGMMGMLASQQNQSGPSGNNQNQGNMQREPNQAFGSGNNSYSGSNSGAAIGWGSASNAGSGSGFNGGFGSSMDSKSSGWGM
The assay was performed as described in Example 43, with the following modifications.
Following to coating the plates with Heparin-BSA, plates were washed as described. The compounds were dissolved in DMSO at 10 mM final concentration and further diluted prior to assay. DMSO concentration in the screening well was up to 2%. Individual compounds were co-incubated with TDP-43 on plates containing immobilized heparin. TDP43 from R&D System (Cat. No. AP-190) was quickly frozen and kept in aliquots at −80 degrees Celsius. TDP-43 dissolved in PBS (pH 6.5, supplemented with BSA, 0.1%) was added to the ELISA plate (100 μl per well) and incubated for 2 hours at RT with gentle shaking. Following the incubation, the plate was washed with de-ionized water and three times with PBS (pH 6.5) plus Tween. Bound TDP-43 was detected by Anti-TDP43 Monoclonal Antibody (R&D System Cat. No. MAB7778), followed by secondary anti-IgG antibody conjugated to HRP (R&D System, Cat. No. HAF007). Following to color development with TMB, as described in Example 43, the Optical Density of the samples was measured at 450 nm using an ELISA plate reader. Following color development, the % inhibition compared to control (no compound, DMSO control) for every compound was determined.
As described in Example 43, Heparin in the form of Heparin-BSA conjugate is used as a source of HS-GAG. For each compound IC-50 value in TDP-43—heparin-BSA binding assay is shown in μM (micromolar). In some cases IC-50 was not measured and % inhibition at 30 μM compound concentration is shown instead. […] All assays were done on 96-well plates in duplicates and experiments were repeated at least twice. […]

Each structure is given as a SMILES string. Structures can show the parent of a compound that is named as a salt. Where two headings read alike, the source gives them in different places.

On to `Fc1ccc2c(N/N=C/c3ccc(-n4ccnc4)cc3)ccnc2c1` [Compound 5, (E)-4-(2-(4-(1H-imidazol-1-yl)benzylidene)hydrazinyl)-7-fluoroquinoline], for which the inhibition at 30 µM in experiment [1] is less than 30%. In experiment [2], the IC50 amounted to 71.4 µM.
Turning to `CN(C)Cc1cc(Nc2ccnc3cc(Cl)ccc23)ccn1` [Compound 45, 7-chloro-N-(2-((dimethylamino)methyl)pyridin-4-yl)quinolin-4-amine], the inhibition at 30 µM in experiment [1] (30 μM compound, alpha-synuclein protofibrils, heparin-BSA) was less than 30%; in experiment [2] it was less than 30%.
Take `Cc1ncn(-c2ncc(Nc3ncnc4cc(Cl)ccc34)cc2O)c1C` [Compound 40, 5-((7-chloroquinazolin-4-yl)amino)-2-(4,5-dimethyl-1H-imidazol-1-yl)pyridin-3-ol phosphoric acid salt]: the inhibition at 30 µM in experiment [1] was less than 30%. For the same molecule, the IC50 in experiment [2] amounted to 7.42 µM.
Taken in the same sequence, the figures for `C/C(=N\Nc1ncnc2ccccc12)c1ccc(-n2cc(C)nc2C)nc1` [Compound 19, (E)-4-(2-(1-(6-(2,4-dimethyl-1H-imidazol-1-yl)pyridin-3-yl)ethylidene)hydrazineyl)quinazoline] were less than 30% and 36.8 µM.
For `COc1cc(Nc2cncc3cc(Cl)ccc23)cnc1-n1cnc(C)c1C` [Compound 33, 7-chloro-N-(6-(4,5-dimethyl-1H-imidazol-1-yl)-5-methoxypyridin-3-yl)isoquinolin-4-amine phosphoric acid salt], the inhibition at 30 µM in experiment [1] and in experiment [2] was less than 30% each time.
For `Cc1cn(-c2ccc(Nc3cncc4cc(Cl)ccc34)cn2)c(C)n1` [Compound 37, 7-chloro-N-(6-(2,4-dimethyl-1H-imidazol-1-yl)pyridin-3-yl)isoquinolin-4-amine phosphoric acid salt], the inhibition at 30 µM in experiment [1] and in experiment [2] was less than 30% throughout.
Take `CN1CCN(c2cc(Nc3ccnc4cc(Cl)ccc34)ccn2)CC1` [Compound 20, 7-chloro-N-(2-(4-methylpiperazin-1-yl)pyridin-4-yl)quinolin-4-amine]: the inhibition at 30 µM in experiment [1] and in experiment [2] was less than 30% throughout.
Turning to `COc1cc2nccc(NN=Cc3ccc(-n4ccnc4)c(C)c3)c2cc1OC` [Compound 11, 4-(2-(4-(1H-imidazol-1-yl)-3-methylbenzylidene)hydrazineyl)-6,7-dimethoxyquinoline hydrochloride], the inhibition at 30 µM in experiment [1] and in experiment [2] was less than 30% throughout.

The values are drawn from patent US20240398783A1, “Compounds and Pharmaceutical Compositions Comprising Inhibitors of Amyloid Peptide Interactions with Glycosaminoglycans, Methods of Treatment and Use Thereof” (Gismo Therapeutics, Inc., priority 2021, published 2024).
